The text below walks through data of patent publication US9598459B2, “Pharmaceutical compositions and methods” (priority 2015, dated 2017).

Values after ≈ are worked out from the molar mass of the structure shown. Values joined by “and” are separate entries in the source; they are usually repeats but may differ in a detail not shown here. Equal values may be shown once. Where a name gives a salt, the structure may show the parent alone. Read-outs that look alike come from different tables or passages of the source.

In data set [1] the test system is Zika virus MR766. The data set is described as follows: Zika virus antiviral screen in HuH-7. It counts as cell-based. As to conditions: for EC50: Zika virus, read-out: EC50.
Data set [2] has as its system Dengue 2. The data set can be described thus: Dengue virus antiviral screen in HUH7. It counts as cell-based, dengue virus type 2. Conditions: Dengue virus, Huh-7, New Guinea C, read-out: EC50.
The nature of data set [3]: in vitro. Conditions: human, CC50.
Data set [4] in a line: Phosphatidylcholine binding (thin-layer chromatographic run). As to conditions: words.
The test system of data set [5] is Vero. As to conditions: African green monkey.
Data set [6] concerns HIV-1 strain LAI. The data set is described as follows: HIV-1 replication reverse transcriptase (RT) assay in PBMC. The data set is classed as cell-based, human immunodeficiency virus type 1. As to conditions: for EC90: Human immunodeficiency virus 1, read-out: Anti-HIV-1LAI activity EC90.
The nature of data set [7]: in vitro. As to conditions: African green monkey.
The nature of data set [8]: in vitro. Conditions: human.
Data set [9] concerns CCRF-CEM. The data set can be described thus: Cytotoxicity on CCRF-CEM. As to conditions: read-out: Cytotoxicity CC50, CCRF-CEM.
Data set [10] has as its system PBMC. Conditions: human.
The subject of data set [11] is Herpes simplex virus type 1 E-377. The data set is described as follows: Herpes simplex virus type 1 antiviral screen in primary HFF-1 (CellTiter-Glo). It counts as cell-based. Conditions: Human alphaherpesvirus 1; E-377, Primary HFF-1, CellTiter-Glo.
Data set [12] can be described thus: Cytotoxicity on primary human foreskin fibroblasts. Conditions: human.
Data set [13] deals with Vaccinia virus Copenhagen. The data set can be described thus: microbe, parasite or virus in culture. It counts as cell-based. As to conditions: Orthopoxvirus vaccinia, HFF-1.
For data set [14], the system named is Enterovirus D68 US/KY/14-18953. The data set can be described thus: Enterovirus D68 antiviral screen in RD. It counts as cell-based. Conditions: Enterovirus D, US/KY/14-18953, RD, read-out: EC50.
The nature of data set [15]: Cytotoxicity on RD host cells. It counts as cell-based. As to conditions: human, RD cells, Enterovirus D68 screen, read-out: CC50.
In data set [16] the test system is Hepatitis B virus (HBV) ayw. The data set is described as follows: Hepatitis B virus replication in HepAD38 (32P dot blot). It counts as cell-based. As to conditions: Hepatitis B virus.
In data set [17] the test system is Norwalk virus (replicon) GT1. The data set is described as follows: Norwalk virus replicon (GT1) in HG23, RNA hybridization. The data set is classed as cell-based, Norwalk virus (human norovirus). Conditions: Norovirus/1968/US, HG23, Replicon.
Data set [18] deals with Hepatitis C virus (replicon) clone B (genotype 1a). The data set is described as follows: HCV genotype 1a HuH-7 clone B subgenomic replicon RNA replication. It counts as cell-based, human hepatitis C virus. As to conditions: Fixed: 10 μM, Clone B genotype 1a, HuH-7, Replicon.
The subject of data set [19] is cellular ribosomal RNA (rRNA) synthesis. The data set is described as follows: Cellular ribosomal RNA synthesis in HCV replicon cells (TaqMan RT-qPCR). It counts as cell-based. Conditions: Fixed: 10 μM, Clone B genotype 1a, HuH-7, Replicon.
Data set [20] concerns Rift Valley fever MP-12. The data set is described as follows: microbe, parasite or virus in culture. The data set is classed as cell-based, Rift Valley fever virus.
The subject of data set [21] is Respiratory syncytial type A A2 (VR-1540). The data set can be described thus: Respiratory syncytial virus type A antiviral screen in MA-104. It counts as cell-based. Conditions: human respiratory syncytial virus, MA104, A2 (VR-1540), read-out: EC50.
Data set [22] has as its system swine-origin pandemic influenza A (H1N1) virus. The data set is described as follows: microbe, parasite or virus in culture. It counts as cell-based.
For data set [23], the system named is Tacaribe TRVL11573. The data set is described as follows: microbe, parasite or virus in culture. It counts as cell-based, Tacaribe virus.
Data set [24] is described as follows: in vitro. Conditions: African green monkey. The source holds these as a separate data set.
A short description of data set [25]: Cytotoxicity on CCRF-CEM. Conditions: human, CCRF-CEM cells (T-lymphoblastic acute T cell leukemia), Cytotoxicity CC50, CCRF-CEM.
For data set [26] the following is noted: rats, twice daily 1-2 mg kg−1 po; cited from earlier work.
For data set [27], the target named is cytosolic progesterone receptors (PR) (Homo sapiens, UniProt P06401). Conditions: Peeters et al., 2008; cited from earlier work.
Data set [28] deals with T1, cytosolic GRs (Homo sapiens, UniProt P04150).
T1 sequence (P04150 1-777): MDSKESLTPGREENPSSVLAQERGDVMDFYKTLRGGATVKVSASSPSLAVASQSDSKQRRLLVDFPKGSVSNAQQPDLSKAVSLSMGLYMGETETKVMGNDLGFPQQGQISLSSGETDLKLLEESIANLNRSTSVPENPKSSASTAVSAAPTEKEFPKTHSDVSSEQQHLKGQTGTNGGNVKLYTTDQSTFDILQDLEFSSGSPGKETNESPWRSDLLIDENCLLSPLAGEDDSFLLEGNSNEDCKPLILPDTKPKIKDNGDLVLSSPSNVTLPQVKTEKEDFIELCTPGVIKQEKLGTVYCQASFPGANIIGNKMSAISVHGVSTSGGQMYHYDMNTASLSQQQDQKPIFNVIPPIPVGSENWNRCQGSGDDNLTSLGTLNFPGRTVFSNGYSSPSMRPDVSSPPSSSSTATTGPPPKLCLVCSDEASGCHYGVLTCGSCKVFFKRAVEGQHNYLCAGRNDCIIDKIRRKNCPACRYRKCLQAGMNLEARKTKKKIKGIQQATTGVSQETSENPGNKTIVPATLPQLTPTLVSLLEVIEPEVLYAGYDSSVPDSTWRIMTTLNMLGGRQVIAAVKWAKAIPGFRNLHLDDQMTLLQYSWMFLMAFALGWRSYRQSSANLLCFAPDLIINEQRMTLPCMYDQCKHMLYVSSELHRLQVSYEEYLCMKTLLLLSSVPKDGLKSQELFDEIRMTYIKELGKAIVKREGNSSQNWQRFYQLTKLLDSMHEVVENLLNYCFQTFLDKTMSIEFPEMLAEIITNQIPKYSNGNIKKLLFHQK
As to conditions: Peeters et al., 2008; cited from earlier work.

For data set [29] the following is noted: cited from earlier work.
Data set [30] relates to Enterovirus 71 Tainan/4643/98. The data set is described as follows: microbe, parasite or virus in culture. It counts as cell-based. Conditions: Enterovirus A, Vero 76.
In data set [31] the test system is Vero 76. As to conditions: African green monkey.
Data set [32] concerns Poliovirus type 3 WM-3. The data set is described as follows: microbe, parasite or virus in culture. It counts as cell-based. As to conditions: Enterovirus C, Vero 76.

Sequence of cytosolic progesterone receptors (PR) (P06401 whole entry): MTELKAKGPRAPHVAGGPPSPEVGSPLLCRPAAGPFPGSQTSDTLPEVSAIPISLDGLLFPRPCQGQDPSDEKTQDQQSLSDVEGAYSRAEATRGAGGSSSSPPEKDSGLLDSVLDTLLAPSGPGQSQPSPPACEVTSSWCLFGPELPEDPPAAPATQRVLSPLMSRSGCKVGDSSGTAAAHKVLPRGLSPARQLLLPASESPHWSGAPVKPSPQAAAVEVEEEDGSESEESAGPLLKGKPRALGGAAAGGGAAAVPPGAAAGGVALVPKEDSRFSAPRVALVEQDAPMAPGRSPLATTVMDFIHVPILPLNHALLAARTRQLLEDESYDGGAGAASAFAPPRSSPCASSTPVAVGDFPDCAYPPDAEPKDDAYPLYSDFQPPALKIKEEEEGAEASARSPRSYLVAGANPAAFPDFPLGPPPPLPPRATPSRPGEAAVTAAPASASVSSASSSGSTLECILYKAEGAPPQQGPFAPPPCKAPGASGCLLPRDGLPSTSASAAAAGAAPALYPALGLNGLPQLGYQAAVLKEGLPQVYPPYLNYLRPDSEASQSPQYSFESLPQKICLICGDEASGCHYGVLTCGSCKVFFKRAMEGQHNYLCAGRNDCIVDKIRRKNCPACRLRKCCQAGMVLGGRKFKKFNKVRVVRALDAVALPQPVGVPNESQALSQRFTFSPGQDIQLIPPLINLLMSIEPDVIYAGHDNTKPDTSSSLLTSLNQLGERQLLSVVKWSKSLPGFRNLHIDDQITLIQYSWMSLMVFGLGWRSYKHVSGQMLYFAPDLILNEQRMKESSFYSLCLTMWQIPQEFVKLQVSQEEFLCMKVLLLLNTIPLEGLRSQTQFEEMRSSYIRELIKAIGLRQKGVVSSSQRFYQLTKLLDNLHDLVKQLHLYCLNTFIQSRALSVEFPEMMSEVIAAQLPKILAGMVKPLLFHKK

As to `O=c1cnn([C@@H]2O[C@H](CO)[C@@H](O)[C@H]2O)c(=O)[nH]1` [6-azauridine, reference compound], in data set [1] (Huh-7, Visual (Virus yield reduction), Zika virus MR766, HUH7, Example 9, unit from Conc. Range, read-out: EC90), the EC90 is 0.89 µg/mL (≈ 3.63 µM). The EC50 in [1] (Huh-7, MR766, HuH-7, Neutral red) came out at 11 µg/mL; in [1] (Huh-7, MR766, HuH-7, Visual), 3.2 µg/mL; in data set [1] (Huh-7, Neutral Red (Cytopathic effect/Toxicity), Zika virus MR766, HUH7, Example 9), 4.1 µg/mL; in data set [1] (Huh-7, Zika virus MR766, HuH-7, Table 10), 13.1 µM; in data set [2] (HuH-7, Neutral red), 4.6 µg/mL (≈ 18.8 µM); in data set [2] (HuH-7, Visual), 2.8 µg/mL (≈ 11.4 µM). In data set [3], this compound came in with a CC50 greater than 408 µM.
As for `CC#C[C@]1(O)CC[C@H]2[C@@H]3CCC4=C/C(=N/NC(N)=S)CCC4=C3[C@@H](c3ccc4c(c3)OCO4)C[C@@]21C` [(E)-ORG34517 thiosemicarbazone], the “binding to PC” value in [4] is listed as “Weak (stereospecific!) binding to PC”.
Take `Cc1cn([C@H]2C[C@H](N=[N+]=[N-])[C@@H](CO)O2)c(=O)[nH]c1=O` [AZT, 3′-azido-3′-deoxythymidine, reference compound]: the CC50 in data set [5] was 39.5 µM; in data set [7] (Cytotoxicity CC50), 56 µM; in [8] it was greater than 100 µM; in data set [9], 14.3 µM; in [9] (listed as zidovudine (AZT)) it was 56.1 µM; in data set [10], greater than 100 µM. The EC50 in data set [6] (Human immunodeficiency virus 1, PBMC, LAI, PBMC, RT 3H-dTTP, read-out: EC50) was determined as 0.00079 µM; in data set [6] (in PBMC, listed as zidovudine (AZT), read-out: Anti-HIV-1LAI activity EC50), 0.0044 ± 0.0039 µM. Also, the EC90 in data set [6] (in PBMC) turned out to be 0.0299 µM.
Take `Nc1nc2c(ncn2COCCO)c(=O)[nH]1` [Aciclovir]: a half-maximal response in [11] (EC50) required 3.85 µM. This compound had a CC50 in data set [12] (primary human foreskin fibroblasts (HFF-1), CC50, Herpes simplex virus type 1 screen, Primary HFF-1, CellTiter-Glo) greater than 150 µM.
In the case of `Nc1ccn(C[C@@H](CO)OCP(=O)(O)O)c(=O)n1` [Cidofovir], in [13], the response was half-maximal at 7.34 µM (EC50). For the same compound, in data set [12] (primary HFF-1 human foreskin fibroblasts, CC50), the CC50 is greater than 150 µM.
Consider `CC(C)S(=O)(=O)n1c(N)nc2ccc(/C(=N/O)c3ccccc3)cc21` [Enviroxime], for which the EC50 in [14] (Neutral red) is 0.1 µg/mL (≈ 0.279 µM); in data set [14] (Visual), less than 0.1 µg/mL. Further, the CC50 amounted to 25 µg/mL (≈ 69.7 µM) in data set [15] (Neutral red) and 32 µg/mL (≈ 89.3 µM) in data set [15] (Visual).
On to `Nc1ccn([C@@H]2CS[C@H](CO)O2)c(=O)n1` [Lamivudine], for which a half-maximal response in [16] (EC50) required 0.03 µM.
Turning to `C[C@@]1(O)[C@H](O)[C@@H](CO)O[C@H]1n1ccc(N)nc1=O` [RS-446], the response in [17] was half-maximal at 6.9 µM (EC50). Besides, the “% Inhib replication” value in [18] was 98.08%. The “% Inhib rRNA(tox)” value in data set [19] came out at 31.09%.
`NC(=O)c1ncn([C@@H]2O[C@H](CO)[C@@H](O)[C@H]2O)n1` [Ribavirin]: the EC50 in data set [20] was found to be 8.3 µg/mL (≈ 34 µM); in [20] (Rift Valley fever virus, Vero 76), 9.7 µg/mL (≈ 39.7 µM); in data set [21] (MA-104, Neutral red) it was 6.8 µg/mL (≈ 27.8 µM); in data set [21] (MA-104, Visual), 6.7 µg/mL (≈ 27.4 µM); in [22], 13 µg/mL (≈ 53.2 µM); in data set [22] (Influenza A virus, H1N1, MDCK), 14 µg/mL (≈ 57.3 µM). Besides, the EC50 in data set [23] was determined as 7 µg/mL (≈ 28.7 µM); in data set [23] (Mammarenavirus tacaribeense, Vero), 7.9 µg/mL (≈ 32.3 µM). The CC50 in data set [7] (CC50) and in data set [24] was greater than 1000 µg/mL in each case.
For the compound `Nc1ccn([C@@H]2O[C@H](CO)[C@@H](O)[C@H]2O)c(=O)[n+]1[C-2][n+]1c(N)ccn([C@@H]2O[C@H](CO)[C@@H](O)[C@H]2O)c1=O` [TCY-1, Bis(cytidin-3-ium-3-yl)methanediide monohydrochloride×1.25H2O], the EC50 in data set [6] (Human immunodeficiency virus 1, PBMC, in PBMC, read-out: Anti-HIV-1LAI activity EC50) was 0.29 µM. In addition, the EC90 in data set [6] (in PBMC) was found to be 1 µM. The CC50 in data set [7] (Cytotoxicity CC50), in data set [8] and in data set [25] was greater than 100 µM in each case.
As to `CC#C[C@]1(O)CC[C@H]2[C@@H]3CCC4=CC(=O)CCC4=C3[C@@H](c3ccc(N(C)C)cc3)C[C@@]21C` [mifepristone, reference compound], in [26], the embryos lost is reported as roughly 100%. In data set [27], the “value for the cytosolic progesterone receptors (PR)” value is 36%. Besides, the “bound to cytosolic GRs, value” in data set [28] is given as 193%. Also, the results for the responding in data set [29] (glucose intolerant group) and in data set [29] (hypertensive group) were 60% and 43%, respectively.
Consider `CCOC(=O)c1ccc(OCCC2CCN(c3ccc(C)nn3)CC2)cc1` [pirodavir, reference compound], for which the EC50 in data set [30] came out at 0.097 µM; in [32], 0.97 µM. Besides, the EC90 was 0.23 µg/mL (≈ 0.623 µM) in data set [30] and 0.14 µg/mL (≈ 0.379 µM) in data set [32]. The CC50 in [31] is 7.8 µg/mL (≈ 21.1 µM); in data set [24] it was > 27 µM and > 10 µg/mL.
